Common to all, as to format: cell-based
The test system of assay [1] is HEXIM1 expression in breast cancer MCF7 cells. Briefly: HEXIM1 protein expression in MCF7 cells. The conditions noted are these: 18 h. As to the method:
FIGS. 5(A-C) illustrate (A) the structure of HMBA analog, 4a1, (B) a graph showing HEXIM1 protein expression of breast cancer MCF7 cells treated with vehicle, HMBA, or 4a1 for 18 h, and (C) Western blot analyses of HEXIM1 targets relative to the loading control (GAPDH) of the treated cells.
(§1) MCF7, MDA-MB-231, and LNCaP cells were obtained from the American Tissue Culture Collection, and were maintained as previously described. Construction of expression vectors for control miRNA or HEXIM1 miRNAs were described previously. MCF7 or LNCaP cells were transfected with expression vectors containing either the HEXIM1 miRNA insert or a control miRNA insert as previously described. Following blasticidin selection, cells expressing the highest level of GFP were flow-sorted and expanded. MDA-MB-231 cells were transfected with control or expression vector for Flag-tagged HEXIM1 as previously described. The tamoxifen resistant cells line (TOTR) was generated by serial passage of parental MCF7 cells in growth media supplemented with 1 uM trans-hydroxytamoxifen.
Cell lysates were analyzed by western blot as previously described. Anti-HEXIM1 was generated in the Montano laboratory. Primary antibodies against p21 (C-19; cat# sc-397), cyclin D1 (HD11; cat# sc-246) and myc (9E10; cat# sc-40) were obtained from Santa Cruz Biotechnology. Anti-GAPDH was obtained from Millipore. […]

In assay [2] the test system is p21 expression in breast cancer MCF7 cells. In words: p21 expression by western blot, MCF7 cells. As to conditions: 5 mM HMBA or 50 μM 4a1, 18 hours. As for the experimental part:
FIGS. 7(A-B) illustrate Western blots showing (A) MCF7 (control siRNA or HEXIM1 siRNA) and (B) LNCaP (control shRNA or HEXIM1 shRNA) cells treated with vehicle (DMSO), 5 mM HMBA, or 50 μM 4a1 for 18 hours.
(§2) Cell lysates were analyzed by western blot as previously described. Anti-HEXIM1 was generated in the Montano laboratory. Primary antibodies against p21 (C-19; cat# sc-397), cyclin D1 (HD11; cat# sc-246) and myc (9E10; cat# sc-40) were obtained from Santa Cruz Biotechnology. Anti-GAPDH was obtained from Millipore. Anti-HIF-1α was obtained from Oxy-cell, Bioresearch).
HMBA was investigated in a Phase II clinical trial due to its potent anti-cancer and cell differentiation activities. Moreover, the roles of HMBA, and potentially 4a1, as differentiating factors are advantageous for their therapeutic use when compared to cytotoxic agents. […] We also examined the ability of 4a1 to induce differentiation and the relative role of HEXIM1.
A general note: Immunoblotting shows a protein as a band on a membrane.

Assay [3] relates to MCF7 cells. Briefly: Nile red staining of lipid droplets (differentiation marker), MCF7 cells. The conditions noted are these: 72 hours. As to the method:
FIGS. 8(A-B) illustrate images showing (A) MCF7 cells transfected with control or HEXIM1 siRNA or (B) MDA-MB-231 transfected with control or HEXIM1 expression vector treated with vehicle (DMSO), HMBA, or 4a1 for 72 hours. Lower panels show Western blot analyses of HEXIM1 expression in MDA-MB-231 cells transfected with control or expression vector for Flag-tagged HEXIM1.
Cells were stained with Nile red for lipid droplets (marker of cell differentiation). Briefly, the stock solution of Nile red 1 mg/ml in acetone was diluted in PBS (1:1000). The fixed cells (4% paraformaldehyde) were incubated with diluted Nile red for 5 minutes at room temperature, rinsed with PBS and observed for the presence of lipid droplets by confocal microscopy. Images were digitally captured using a Leica microscope (Leica Microsystems Inc, IL, USA).

For assay [4], the system named is HEXIM1 expression in MCF7/TOTR cells. In words: HEXIM1 expression in tamoxifen resistant MCF7/TOTR cells. The conditions noted are these: 5 mM HMBA or 50 μM 4a1. As to the method:
FIGS. 9(A-B) illustrate a Western blot and plots showing HEXIM1 expression in MCF7 and MCF7(TOTR) cells in the presence of vehicle (DMSO), 5 mM HMBA or 50 μM 4a1.
as §1, with “The tamoxifen resistant cells line (TOTR) was generated by serial passage of parental MCF7 cells in growth media supplemented with 1 uM trans-hydroxytamoxifen.” left out
Cell lysates were analyzed by western blot as previously described. […]
We have reported that HEXIM1 is required for the ability of antiestrogens to inhibit the activity of the Estrogen Receptor, that loss of HEXIM1 results in agonistic activity of tamoxifen, and that recurrence after tamoxifen therapy can be correlated with loss of HEXIM1 expression in human breast tissue samples. Thus we determined if HMBA and 4a1 can enhance sensitivity to tamoxifen of a tamoxifen resistant breast cancer line (MCF7/TOTR). […]

Assay [5] deals with HEXIM1 targets in MCF7 cells. In words: Western blot of HEXIM1 targets in MCF7 cells. As to conditions: 5 mM HMBA or 50 uM 4a1, 18 h, relative to GAPDH. As for the experimental part: FIG. 10 illustrates a Western blot of MCF7 cells treated with vehicle, 5 mM HMBA, or 50 uM 4a1 for 18 h, and processes for analyses of HEXIM1 targets relative to GAPDH.
as §2
To assess the clinical potential of HMBA and 4a1 we need to determine to what extent the targets of HMBA and 4a1 overlap with that of HEXIM1. We focused on direct targets of HEXIM1 that we have identified.

In the case of `COc1ccc(CC(=O)NCCCCCCNC(C)=O)cc1` [Compound 4a1], the “Potency of HEXIM1 induction compared to HMBA” value in assay [1] was “increased potency”. The p21 expression result in assay [2] is recorded as “induced p21 expression”. Besides, the “Cell differentiation (lipid droplets, Nile red)” value in assay [3] is on record as “induced differentiation”. Moreover, the HEXIM1 expression result in assay [4] is recorded as “induced HEXIM1 expression”. Besides, in assay [5], the “Expression of proteins directly regulated by HEXIM1” value is “regulated expression of proteins”.

The record behind these values is patent US10959966B2, “Compositions and methods for modulating HEXM1 expression” (CASE WESTERN RESERVE UNIVERSITY, priority 2014, dated 2021).
